Measurements from patent US9187471B2, “Pyrido [4,3-b] indole and pyrido [3,4-b] indole derivatives and methods of use” (Medivation Technologies, Inc., priority 2010, dated 2015).

Experiments:
[1] = target: T1, human recombinant serotonin (5-Hydroxytryptamine) 5-HT5A receptor (Homo sapiens, UniProt P47898); assay: Serotonin 5-HT5A radioligand binding ([3H]LSD); details: compound at 0.1 μM; read-out: Inhibition of ligand binding, Serotonin 5-HT5A (percent inhibition of specific binding)
T1 construct: expressed in transfected cells; host or cells: CHO-K1
Protocol: Compounds of the invention were incubated with 1.7 nM [^3H]Lysergic acid diethylamide (LSD) for 60 min at 37° C. […] Receptor proteins were filtered and washed, the filters were counted to determine [^3H]LSD specifically bound.

[2] = target: T2, human recombinant serotonin (5-Hydroxytryptamine) 5-HT7 receptor (Homo sapiens, UniProt P34969); assay: Serotonin 5-HT7 radioligand binding ([3H]LSD); details: compound at 0.1 μM; read-out: Inhibition of ligand binding, Serotonin 5-HT7 (percent inhibition of specific binding)
T2 construct: expressed in transfected cells; host or cells: CHO
Protocol: Lysergic acid diethylamide (LSD) for 120 min. at 25° C. […] Receptor proteins were filtered and washed, the filters were then counted to determine [^3H]LSD specifically bound.

[3] = target: T3, human recombinant dopamine D2L receptor (Homo sapiens, UniProt P14416); assay: Dopamine D2L radioligand binding ([3H]Spiperone); details: 0.16 nM [3H]Spiperone; for inhibition at 1 µM: read-out: Dopamine D2L (1 μM), percent inhibition of specific binding, compound at 1 μM
T3 construct: expressed in transfected cells; host or cells: CHO
Protocol: Non-specific binding was estimated in the presence of 10 μM Haloperidol. Receptor proteins were filtered and washed, the filters were then counted to determine [^3H]Spiperone specifically bound.

[4] = target: T4, human recombinant serotonin (5-Hydroxytryptamine) 5-HT2A receptor (Homo sapiens, UniProt P28223); assay: Serotonin 5-HT2A radioligand binding ([3H]Ketanserin); details: compound at 0.1 μM; read-out: Inhibition of ligand binding, Serotonin 5-HT2A (percent inhibition of specific binding)
T4 construct: expressed in transfected cells; host or cells: CHO-K1
Protocol: Compounds of the invention were incubated with 0.5 nM [^3H]Ketanserin for 60 min at 25° C. Non-specific binding was estimated in the presence of 1 μM Mianserin. Receptor proteins were filtered and washed, the filters were then counted to determine [^3H]Ketanserin specifically bound.

T2 sequence (P34969 whole entry): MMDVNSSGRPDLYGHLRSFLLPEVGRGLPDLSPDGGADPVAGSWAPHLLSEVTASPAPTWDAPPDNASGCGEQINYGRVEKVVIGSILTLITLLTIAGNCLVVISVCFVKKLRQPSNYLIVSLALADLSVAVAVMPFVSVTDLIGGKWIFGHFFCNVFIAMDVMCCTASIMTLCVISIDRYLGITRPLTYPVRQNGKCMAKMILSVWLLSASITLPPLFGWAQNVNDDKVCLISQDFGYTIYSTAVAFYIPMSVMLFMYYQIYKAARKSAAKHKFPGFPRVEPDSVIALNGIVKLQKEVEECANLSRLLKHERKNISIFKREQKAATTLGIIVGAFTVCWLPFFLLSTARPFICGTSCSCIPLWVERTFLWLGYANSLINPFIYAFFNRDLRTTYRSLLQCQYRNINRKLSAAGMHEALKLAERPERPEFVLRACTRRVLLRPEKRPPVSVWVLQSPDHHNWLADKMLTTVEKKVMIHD
T1 sequence (P47898 whole entry): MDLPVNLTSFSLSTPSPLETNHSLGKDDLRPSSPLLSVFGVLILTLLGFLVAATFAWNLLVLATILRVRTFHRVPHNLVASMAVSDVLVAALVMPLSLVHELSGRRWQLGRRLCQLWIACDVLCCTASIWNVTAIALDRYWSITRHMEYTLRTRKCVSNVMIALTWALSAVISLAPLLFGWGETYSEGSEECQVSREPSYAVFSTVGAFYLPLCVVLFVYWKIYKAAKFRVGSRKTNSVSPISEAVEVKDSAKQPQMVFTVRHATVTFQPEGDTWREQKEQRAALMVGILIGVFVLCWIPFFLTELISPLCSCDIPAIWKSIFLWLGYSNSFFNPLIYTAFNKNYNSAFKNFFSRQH
T3 sequence (P14416 whole entry): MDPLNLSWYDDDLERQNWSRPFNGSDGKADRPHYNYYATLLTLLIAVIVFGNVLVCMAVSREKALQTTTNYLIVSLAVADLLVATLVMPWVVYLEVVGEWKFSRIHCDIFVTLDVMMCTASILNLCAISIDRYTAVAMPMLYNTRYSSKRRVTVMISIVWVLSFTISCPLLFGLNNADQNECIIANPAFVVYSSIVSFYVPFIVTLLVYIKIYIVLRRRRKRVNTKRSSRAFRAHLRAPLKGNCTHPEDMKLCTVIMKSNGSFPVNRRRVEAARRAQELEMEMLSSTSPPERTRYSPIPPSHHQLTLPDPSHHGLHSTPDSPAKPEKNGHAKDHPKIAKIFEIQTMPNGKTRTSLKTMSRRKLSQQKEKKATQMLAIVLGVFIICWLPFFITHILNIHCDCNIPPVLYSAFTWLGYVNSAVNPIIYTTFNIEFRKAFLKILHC
T4 sequence (P28223 whole entry): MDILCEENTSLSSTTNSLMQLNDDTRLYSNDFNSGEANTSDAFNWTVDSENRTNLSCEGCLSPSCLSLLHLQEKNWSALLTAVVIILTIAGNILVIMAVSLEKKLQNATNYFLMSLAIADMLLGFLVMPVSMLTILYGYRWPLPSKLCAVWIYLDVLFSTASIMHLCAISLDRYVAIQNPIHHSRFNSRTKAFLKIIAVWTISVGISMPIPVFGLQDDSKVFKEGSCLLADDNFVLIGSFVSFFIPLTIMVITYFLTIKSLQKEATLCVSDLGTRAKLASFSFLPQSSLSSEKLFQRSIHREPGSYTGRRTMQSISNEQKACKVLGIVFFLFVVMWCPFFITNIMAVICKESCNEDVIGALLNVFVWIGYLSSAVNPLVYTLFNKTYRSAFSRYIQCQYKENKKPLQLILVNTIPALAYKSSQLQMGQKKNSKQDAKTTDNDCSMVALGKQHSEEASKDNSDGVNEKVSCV

| SMILES | inhibition at 0.1 µM [1] [%] | inhibition at 0.1 µM [2] [%] | inhibition at 1 µM [3] [%] | inhibition at 0.1 µM [4] [%] | inhibition at 0.1 µM ([3]; read-out: Dopamine D2L (0.1 μM), percent inhibition of specific binding, compound at 0.1 μM) [%] |
| --- | --- | --- | --- | --- | --- |
| Cc1ccc2c(c1)c1c(n2-c2ccc(-c3sccc3C)cn2)CCN(C)C1 [Compound No. 148, 2,8-dimethyl-5-(5-(3-methylthiophen-2-yl)pyridin-2-yl)-2,3,4,5-tetrahydro-1H-pyrido[4,3-b]indole] | 50 | 35 | 17 | 95 |  |
| Cc1ccc2c(c1)c1c(n2-c2ccc3cnccc3c2)CCN(C)C1 [Compound 38] | 29 | 33 | 53 | 84 |  |
| Cc1csc(-c2ccc(-n3c4c(c5cc(C)ccc53)CN(C)CC4)nc2)c1 [Compound No. 144, 2,8-dimethyl-5-(5-(4-methylthiophen-2-yl)pyridin-2-yl)-2,3,4,5-tetrahydro-1H-pyrido[4,3-b]indole] | 38 | 37 | 5 | 103 |  |
| Cc1ccc2c(c1)c1c(n2-c2ccc(-c3cnc(N(C)C)nc3)cn2)CCN(C)C1 [Compound No. 138, 5-(6-(2,8-dimethyl-3,4-dihydro-1H-pyrido[4,3-b]indol-5(2H)-yl)pyridin-3-yl)-N,N-dimethylpyrimidin-2-amine] | 13 | 6 | -2 | 83 |  |
| Cc1ccc2c(c1)c1c(n2-c2ccc(-c3cncc4ccccc34)cn2)CCN(C)C1 [Compound No. 135, 5-(5-(isoquinolin-4-yl)pyridin-2-yl)-2,8-dimethyl-2,3,4,5-tetrahydro-1H-pyrido[4,3-b]indole] | 77 | 22 | 12 | 72 |  |
| Cc1ccc2c(c1)c1c(n2-c2cccc(-c3cnn(C)c3)c2)CCN(C)C1 [Compound 46, 2,8-dimethyl-5-(3-(1-methyl-1H-pyrazol-4-yl)phenyl)-2,3,4,5-tetrahydro-1H-pyrido[4,3-b]indole] | 32 | 51 | 20 | 84 |  |
| Cc1ccc2c(c1)c1c(n2-c2ccc(-c3cccc4[nH]ncc34)cn2)CCN(C)C1 [Compound No. 147, 5-(5-(1H-indazol-4-yl)pyridin-2-yl)-2,8-dimethyl-2,3,4,5-tetrahydro-1H-pyrido[4,3-b]indole] | 23 | 14 | 33 | 62 |  |
| Cc1ccc2c(c1)c1c(n2-c2ccccc2-c2ccc(F)nc2)CCN(C)C1 [Compound No. 84, 5-(2-(6-fluoropyridin-3-yl)phenyl)-2,8-dimethyl-2,3,4,5-tetrahydro-1H-pyrido[4,3-b]indole] | 29 | 25 | 8 | 89 |  |
| CNC(=O)c1ccc(-c2cccc(-n3c4c(c5cc(C)ccc53)CN(C)CC4)c2)cn1 [Compound No. 75, 5-(3-(2,8-dimethyl-3,4-dihydro-1H-pyrido[4,3-b]indol-5(2H)-yl)phenyl)-N-methylpicolinamide] | 29 | 21 | 18 | 55 |  |
| Cc1ccc2c(c1)c1c(n2-c2cccc(-c3cncc4ccccc34)c2)CCN(C)C1 [Compound No. 67, 5-(3-(isoquinolin-4-yl)phenyl)-2,8-dimethyl-2,3,4,5-tetrahydro-1H-pyrido[4,3-b]indole] | 39 | 28 | 61 | 75 |  |
| Cc1ccc2c(c1)c1c(n2-c2ccc(-c3ccc(S(N)(=O)=O)cc3)cn2)CCN(C)C1 [Compound No. 145, 4-(6-(2,8-dimethyl-3,4-dihydro-1H-pyrido[4,3-b]indol-5(2H)-yl)pyridin-3-yl)benzenesulfonamide] | 15 | 32 | 8 | 82 |  |
| Cc1csc(-c2ccccc2-n2c3c(c4cc(C)ccc42)CN(C)CC3)c1 [Compound 36] | 50 | 51 | 22 | 80 |  |
| Cc1ccc2c(c1)c1c(n2-c2ccc(-c3ccc(F)cc3)cn2)CCN(C)C1 [Compound No. 140, 5-(5-(4-fluorophenyl)pyridin-2-yl)-2,8-dimethyl-2,3,4,5-tetrahydro-1H-pyrido[4,3-b]indole] | 52 | 41 | -4 | 104 |  |
| Cc1ccc2c(c1)c1c(n2-c2cccc(-c3cn[nH]c3)c2)CCN(C)C1 [Compound No. 70, 5-(3-(1H-pyrazol-4-yl)phenyl)-2,8-dimethyl-2,3,4,5-tetrahydro-1H-pyrido[4,3-b]indole] | 43 | 50 | 15 | 98 |  |
| Cc1cc(C)c2c(c1)c1c(n2-c2ccc3ncccc3c2)CCN(C)C1 [Compound 48] | 10 | 23 | 41 | 13 |  |
| Cc1ccc2c(c1)c1c(n2-c2cccc(-c3ccc(S(C)(=O)=O)cc3)c2)CCN(C)C1 [Compound No. 131, 2,8-dimethyl-5-(4′-(methylsulfonyl)biphenyl-3-yl)-2,3,4,5-tetrahydro-1H-pyrido[4,3-b]indole] | 19 | 2 | 4 | 74 |  |
| Cc1ccc2c(c1)c1c(n2-c2ccc(-c3cccnc3)cn2)CCN(C)C1 [Compound No. 133, 5-(3,3′-bipyridin-6-yl)-2,8-dimethyl-2,3,4,5-tetrahydro-1H-pyrido[4,3-b]indole] | 6 | 21 | 11 | 86 |  |
| Cc1ccc2c(c1)c1c(n2-c2cscc2C(=O)N(C)C)CCN(C)C1 [Compound No. 152] | 14 | 15 |  | 31 | 4 |
| Cc1ccc2c(c1)c1c(n2-c2ccccc2-c2ccc(C)nc2)CCN(C)C1 [Compound 59, 2,8-dimethyl-5-(2-(6-methylpyridin-3-yl)phenyl)-2,3,4,5-tetrahydro-1H-pyrido[4,3-b]indole] | 31 | 48 | 13 | 47 |  |
| Cc1ccc2c(c1)c1c(n2-c2ccc(-c3ccc(F)nc3)cn2)CCN(C)C1 [Compound No. 142, 5-(6′-fluoro-3,3′-bipyridin-6-yl)-2,8-dimethyl-2,3,4,5-tetrahydro-1H-pyrido[4,3-b]indole] | 23 | 22 | 13 | 103 |  |
| Cc1ccc2c(c1)c1c(n2-c2ccccc2-c2cnc(N(C)C)nc2)CCN(C)C1 [Compound 31] | 8 | -2 | 12 | 27 |  |
| Cc1ccc2c(c1)c1c(n2-c2cscc2-c2ccc(O)nc2)CCN(C)C1 [Compound 49] | 52 | 86 | 1 | 18 |  |
